Where a name gives a salt, the structure may show the parent alone.
Target: serotonin reuptake (Rattus norvegicus, UniProt P31652)
Assay: in vitro serotonin reuptake inhibition assay (Paracelsian)
Assay type: biochemical
Procedure: The bioassay was performed in quadruplicate by Paracelsian, Inc., Ithaca, N.Y. and were all in compliance with our standard operating protocols, having a standard deviation less than ±5%.

Sequence of serotonin reuptake (P31652 whole entry): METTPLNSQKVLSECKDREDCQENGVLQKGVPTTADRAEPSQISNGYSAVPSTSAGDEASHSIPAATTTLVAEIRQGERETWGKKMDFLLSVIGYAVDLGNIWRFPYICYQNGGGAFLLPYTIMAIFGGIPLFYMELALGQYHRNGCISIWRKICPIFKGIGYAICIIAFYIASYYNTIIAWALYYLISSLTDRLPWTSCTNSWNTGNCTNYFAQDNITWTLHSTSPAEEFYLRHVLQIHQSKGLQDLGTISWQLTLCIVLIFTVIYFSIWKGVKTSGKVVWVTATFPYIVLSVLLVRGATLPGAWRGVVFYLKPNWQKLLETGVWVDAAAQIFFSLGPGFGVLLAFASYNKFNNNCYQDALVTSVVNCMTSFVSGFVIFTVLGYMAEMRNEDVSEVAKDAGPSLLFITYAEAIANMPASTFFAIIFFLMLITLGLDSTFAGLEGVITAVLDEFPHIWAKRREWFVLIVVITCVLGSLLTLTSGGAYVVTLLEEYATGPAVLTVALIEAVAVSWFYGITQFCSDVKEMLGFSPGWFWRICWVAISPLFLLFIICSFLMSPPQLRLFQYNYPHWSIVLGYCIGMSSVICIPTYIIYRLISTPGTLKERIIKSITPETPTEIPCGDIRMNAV

| Compound | Serotonin Reuptake Inhibition (%) (sample weight 2 μg) | Serotonin Reuptake Inhibition (%) (sample weight 65 ng) |
| --- | --- | --- |
| Cc1cc(O)c2c(=O)c3c(O)cc(O)c4c5c(O)cc(O)c6c(=O)c7c(O)cc(C)c8c1c2c(c34)c(c78)c65 [Hypericin (Sigma), hypericin] | 0.0 |  |
| hyperforin [Hyperforin (Aphios)] | 80.3 |  |
| CN(C)CCCN1c2ccccc2CCc2ccccc21 [Imipramine (Sigma), imipramine hydrochloride] |  | 38.3 |

From US20060240098A1, “Formulations for hyperforin-enriched hypericum fractions” (Aphios Corporation, priority 2004, published 2006)
